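Cultured in 96-well plates, cells were exposed to test compound for 48 hours across five concentrations. Here, GI50 denotes the concentration required for 50% inhibition of growth. TGI: total growth inhibition.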
Tests used:
Assay in all cases: NCI anticancer screen, dose series, 48 h
HT29 colon = tested on: HT29 colon
SK-MEL-28 melanoma = tested on: SK-MEL-28 melanoma
SK-OV-3 ovarian = tested on: SK-OV-3 ovarian
A498 renal = tested on: A498 renal
U251 CNS = tested on: U251 CNS
SNB-19 CNS = tested on: SNB-19 CNS
UACC-62 melanoma = tested on: UACC-62 melanoma
HCT-15 colon = tested on: HCT-15 colon
NCI/ADR-RES ovarian = tested on: NCI/ADR-RES ovarian
MCF7 breast = tested on: MCF7 breast
SK-MEL-5 melanoma = tested on: SK-MEL-5 melanoma
SK-MEL-2 melanoma = tested on: SK-MEL-2 melanoma
SR leukemia = tested on: SR leukemia
RPMI-8226 leukemia = tested on: RPMI-8226 leukemia
SF-268 CNS = tested on: SF-268 CNS
DU-145 prostate = tested on: DU-145 prostate
HCT-116 colon = tested on: HCT-116 colon
SN12C renal = tested on: SN12C renal
RXF 393 renal = tested on: RXF 393 renal
SNB-75 CNS = tested on: SNB-75 CNS
IGROV1 ovarian = tested on: IGROV1 ovarian
NCI-H23 lung = tested on: NCI-H23 lung
HL-60(TB) leukemia = tested on: HL-60(TB) leukemia
SF-539 CNS = tested on: SF-539 CNS
T-47D breast = tested on: T-47D breast
NCI-H522 lung = tested on: NCI-H522 lung
NCI-H226 lung = tested on: NCI-H226 lung
NCI-H460 lung = tested on: NCI-H460 lung
786-0 renal = tested on: 786-0 renal
CAKI-1 renal = tested on: CAKI-1 renal
OVCAR-4 ovarian = tested on: OVCAR-4 ovarian
HS 578T breast = tested on: HS 578T breast
MALME-3M melanoma = tested on: MALME-3M melanoma
OVCAR-8 ovarian = tested on: OVCAR-8 ovarian
OVCAR-3 ovarian = tested on: OVCAR-3 ovarian
HOP-92 NSCLC = tested on: HOP-92 NSCLC
K-562 leukemia = tested on: K-562 leukemia
A549 NSCLC = tested on: A549 NSCLC
MDA-MB-231 breast = tested on: MDA-MB-231 breast
CCRF-CEM leukemia = tested on: CCRF-CEM leukemia
ACHN renal = tested on: ACHN renal
HOP-62 NSCLC = tested on: HOP-62 NSCLC
OVCAR-5 ovarian = tested on: OVCAR-5 ovarian
M14 melanoma = tested on: M14 melanoma
MDA-MB-435 = tested on: MDA-MB-435
PC-3 prostate = tested on: PC-3 prostate
MOLT-4 leukemia = tested on: MOLT-4 leukemia
SF-295 CNS = tested on: SF-295 CNS
COLO 205 colon = tested on: COLO 205 colon
SW-620 colon = tested on: SW-620 colon
LOX IMVI melanoma = tested on: LOX IMVI melanoma
HCC-2998 colon = tested on: HCC-2998 colon
TK-10 renal = tested on: TK-10 renal
UACC-257 melanoma = tested on: UACC-257 melanoma
UO-31 renal = tested on: UO-31 renal
KM12 colon = tested on: KM12 colon
BT-549 breast = tested on: BT-549 breast

For O=c1c2sc3ccccc3c2nnn1-c1ccc(F)c(Cl)c1, the GI50 (HT29 colon) was > 100 µM, the TGI (HT29 colon) was > 100 µM and the GI50 (SK-MEL-28 melanoma) was > 100 µM. The TGI (SK-MEL-28 melanoma) was > 100 µM, the GI50 (SK-OV-3 ovarian) was 3.17 µM and the TGI (SK-OV-3 ovarian) was 9.92 µM. For the same molecule, the GI50 (A498 renal) was 5.82 µM, the TGI (A498 renal) was 24.2 µM and the GI50 (U251 CNS) was 4.76 µM. For the same molecule, the TGI (U251 CNS) was 24.9 µM, the GI50 (SNB-19 CNS) was 4.16 µM and the TGI (SNB-19 CNS) was 34.4 µM. The GI50 (UACC-62 melanoma) was 11.7 µM, the TGI (UACC-62 melanoma) was 38.8 µM and the GI50 (HCT-15 colon) was 20.3 µM. The TGI (HCT-15 colon) was > 100 µM, the GI50 (NCI/ADR-RES ovarian) was 17.1 µM and the TGI (NCI/ADR-RES ovarian) was > 100 µM. For the same molecule, the GI50 (MCF7 breast) was 20.4 µM, the TGI (MCF7 breast) was > 100 µM and the GI50 (SK-MEL-5 melanoma) was 39.3 µM. The TGI (SK-MEL-5 melanoma) was > 100 µM, the GI50 (SK-MEL-2 melanoma) was 14.8 µM and the TGI (SK-MEL-2 melanoma) was 35 µM. For the same molecule, the GI50 (SR leukemia) was 7.99 µM, the TGI (SR leukemia) was 22.7 µM and the GI50 (RPMI-8226 leukemia) was 13.4 µM. The TGI (RPMI-8226 leukemia) was 41.4 µM, the GI50 (SF-268 CNS) was 15 µM and the TGI (SF-268 CNS) was 55 µM. The GI50 (DU-145 prostate) was 15.6 µM, the TGI (DU-145 prostate) was > 100 µM and the GI50 (HCT-116 colon) was 3.6 µM. For the same molecule, the TGI (HCT-116 colon) was 20.9 µM, the GI50 (SN12C renal) was 15.1 µM and the TGI (SN12C renal) was > 100 µM. It also gave a GI50 (RXF 393 renal) of 5.21 µM, a TGI (RXF 393 renal) of 22.4 µM and a GI50 (SNB-75 CNS) of 2.01 µM. It also gave a TGI (SNB-75 CNS) of 8.89 µM, a GI50 (IGROV1 ovarian) of 3.66 µM and a TGI (IGROV1 ovarian) of 38 µM. For the same molecule, the GI50 (NCI-H23 lung) was 15.7 µM, the TGI (NCI-H23 lung) was 62.8 µM and the GI50 (HL-60(TB) leukemia) was 56.6 µM. The TGI (HL-60(TB) leukemia) was > 100 µM, the GI50 (SF-539 CNS) was 11.9 µM and the TGI (SF-539 CNS) was 27.7 µM. For the same molecule, the GI50 (T-47D breast) was 8.12 µM, the TGI (T-47D breast) was > 100 µM and the GI50 (NCI-H522 lung) was 20.2 µM. The TGI (NCI-H522 lung) was > 100 µM, the GI50 (NCI-H226 lung) was 8.87 µM and the TGI (NCI-H226 lung) was > 100 µM. The GI50 (NCI-H460 lung) was 4.2 µM, the TGI (NCI-H460 lung) was > 100 µM and the GI50 (786-0 renal) was 3.62 µM. The TGI (786-0 renal) was 11.5 µM, the GI50 (CAKI-1 renal) was 3.65 µM and the TGI (CAKI-1 renal) was > 100 µM. For the same molecule, the GI50 (OVCAR-4 ovarian) was 3.39 µM, the TGI (OVCAR-4 ovarian) was > 100 µM and the GI50 (HS 578T breast) was 2.68 µM. It also gave a TGI (HS 578T breast) of 10.4 µM, a GI50 (MALME-3M melanoma) of 8.17 µM and a TGI (MALME-3M melanoma) of 54.6 µM. For the same molecule, the GI50 (OVCAR-8 ovarian) was 5.16 µM, the TGI (OVCAR-8 ovarian) was > 100 µM and the GI50 (OVCAR-3 ovarian) was 21.2 µM. For the same molecule, the TGI (OVCAR-3 ovarian) was > 100 µM, the GI50 (HOP-92 NSCLC) was 1.25 µM and the TGI (HOP-92 NSCLC) was 4.89 µM. The GI50 (K-562 leukemia) was 14.8 µM, the TGI (K-562 leukemia) was 39.4 µM and the GI50 (A549 NSCLC) was 3.75 µM. For the same molecule, the TGI (A549 NSCLC) was > 100 µM, the GI50 (MDA-MB-231 breast) was 3.99 µM and the TGI (MDA-MB-231 breast) was 26.1 µM. The GI50 (CCRF-CEM leukemia) was 4.03 µM, the TGI (CCRF-CEM leukemia) was 16.9 µM and the GI50 (ACHN renal) was 3.88 µM. It also gave a TGI (ACHN renal) of 27.2 µM, a GI50 (HOP-62 NSCLC) of 2.17 µM and a TGI (HOP-62 NSCLC) of 5.66 µM. The GI50 (OVCAR-5 ovarian) was 20.8 µM, the TGI (OVCAR-5 ovarian) was > 100 µM and the GI50 (M14 melanoma) was 30 µM. For the same molecule, the TGI (M14 melanoma) was > 100 µM, the GI50 (MDA-MB-435) was > 100 µM and the TGI (MDA-MB-435) was > 100 µM. For the same molecule, the GI50 (PC-3 prostate) was 7.76 µM, the TGI (PC-3 prostate) was > 100 µM and the GI50 (MOLT-4 leukemia) was 14.9 µM. The TGI (MOLT-4 leukemia) was 32.5 µM, the GI50 (SF-295 CNS) was 2.56 µM and the TGI (SF-295 CNS) was 8.59 µM. For the same molecule, the GI50 (COLO 205 colon) was 3.93 µM, the TGI (COLO 205 colon) was > 100 µM and the GI50 (SW-620 colon) was > 100 µM. For the same molecule, the TGI (SW-620 colon) was > 100 µM, the GI50 (LOX IMVI melanoma) was 3.9 µM and the TGI (LOX IMVI melanoma) was > 100 µM. For the same molecule, the GI50 (HCC-2998 colon) was 24.8 µM, the TGI (HCC-2998 colon) was > 100 µM and the GI50 (TK-10 renal) was 4.63 µM. The TGI (TK-10 renal) was 13.8 µM, the GI50 (UACC-257 melanoma) was 29.4 µM and the TGI (UACC-257 melanoma) was > 100 µM. The GI50 (UO-31 renal) was 2.13 µM, the TGI (UO-31 renal) was > 100 µM and the GI50 (KM12 colon) was 17.4 µM. For the same molecule, the TGI (KM12 colon) was > 100 µM, the GI50 (BT-549 breast) was 31.7 µM and the TGI (BT-549 breast) was 95 µM.

Reference: PubChem BioAssay (NCI)
